ChEMBL document CHEMBL1201862, “PubChem BioAssay data set” (2004)
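Protocol summary: plate cells (96-well), add compound at 5 concentrations, incubate 48 h, interpolate endpoints linearly. GI50 is the concentration that inhibits growth by half.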 Calls of active or inactive are those of the source. No stated cut-off is given here; in the data, active = GI50 up to about 1.1 µM and inactive = higher. Peptide text beside a SMILES is read from it. * marks the point of attachment. Boc = CC(C)(C)OC(=O)*

What was measured:
Experiment in all cases: DTP human tumour cell line panel, 48 h
NCI-H226 = tested on: NCI-H226
SF-295 = tested on: SF-295
CCRF-CEM = tested on: CCRF-CEM
KM12 = tested on: KM12
Hs-578T = tested on: Hs-578T
EKVX = tested on: EKVX
SK-MEL-28 = tested on: SK-MEL-28
UO-31 = tested on: UO-31
IGROV-1 = tested on: IGROV-1
NCI-H522 = tested on: NCI-H522
SNB-19 = tested on: SNB-19
DU-145 = tested on: DU-145
NCI/ADR-RES = tested on: NCI/ADR-RES
OVCAR-8 = tested on: OVCAR-8
MCF7 = tested on: MCF7
MDA-MB-231 = tested on: MDA-MB-231
U-251 = tested on: U-251
RXF 393 = tested on: RXF 393
K562 = tested on: K562
SR = tested on: SR

Measured: GI50

Cc1oc2c(c1C)S(=O)(=O)C(C#N)C(c1ccccc1)N2 (centres undefined)
inactive: NCI-H226 > 100 µM | SF-295 78.9 µM | CCRF-CEM 20.4 µM | KM12 50.4 µM | Hs-578T 30.9 µM | EKVX > 100 µM | SK-MEL-28 > 100 µM | UO-31 41.5 µM | IGROV-1 > 100 µM | NCI-H522 16.9 µM | SNB-19 > 100 µM | DU-145 80.7 µM | NCI/ADR-RES 30.8 µM | OVCAR-8 40.4 µM | MCF7 51.5 µM | MDA-MB-231 > 100 µM | U-251 55 µM

COc1ccc(C2C(C#N)=C(S)N(C3OC(COC(C)=O)C(OC(C)=O)C(OC(C)=O)C3OC(C)=O)C(c3ccccc3)=C2C(C)=O)cc1 (centres undefined)
inactive: NCI-H226 > 100 µM | SF-295 > 100 µM | CCRF-CEM > 100 µM | KM12 > 100 µM | Hs-578T 70.8 µM | SK-MEL-28 > 100 µM | RXF 393 78.9 µM | UO-31 21.6 µM | K562 37.5 µM | IGROV-1 > 100 µM | NCI-H522 61.4 µM | SNB-19 > 100 µM | DU-145 > 100 µM | NCI/ADR-RES > 100 µM | OVCAR-8 > 100 µM | MCF7 63 µM | MDA-MB-231 > 100 µM | U-251 > 100 µM

N#CC1Cc2cc3c(cc21)OCO3 (centres undefined)
inactive: NCI-H226 > 100 µM | SF-295 > 100 µM | CCRF-CEM > 100 µM | KM12 > 100 µM | Hs-578T > 100 µM | EKVX > 100 µM | SK-MEL-28 > 100 µM | SR > 100 µM | UO-31 > 100 µM | K562 > 100 µM | IGROV-1 > 100 µM | SNB-19 > 100 µM | DU-145 > 100 µM | NCI/ADR-RES > 100 µM | OVCAR-8 > 100 µM | MCF7 > 100 µM | MDA-MB-231 > 100 µM | U-251 > 100 µM

CCOCC(NC(=O)C(CC(C)C)NC(=O)OC(C)(C)C)C(N)=O (stereo not drawn) (Boc-Leu-Ser(Et)-NH2; configuration not given here)
inactive: NCI-H226 > 100 µM | SF-295 > 100 µM | CCRF-CEM 41 µM | KM12 > 100 µM | Hs-578T > 100 µM | EKVX > 100 µM | SK-MEL-28 1.31 µM | RXF 393 > 100 µM | UO-31 > 100 µM | IGROV-1 > 100 µM | NCI-H522 > 100 µM | SNB-19 > 100 µM | DU-145 > 100 µM | NCI/ADR-RES > 100 µM | OVCAR-8 > 100 µM | MCF7 > 100 µM | MDA-MB-231 > 100 µM | U-251 1.46 µM

COc1ccc(OCc2nc3cc(C(F)(F)F)ccc3nc2-c2ccccc2)cc1
inactive: NCI-H226 > 100 µM | SF-295 > 100 µM | CCRF-CEM > 100 µM | KM12 > 100 µM | Hs-578T > 100 µM | EKVX > 100 µM | SK-MEL-28 > 100 µM | RXF 393 > 100 µM | UO-31 > 100 µM | K562 > 100 µM | SNB-19 > 100 µM | DU-145 > 100 µM | NCI/ADR-RES > 100 µM | OVCAR-8 > 100 µM | MCF7 > 100 µM | MDA-MB-231 27.4 µM | U-251 > 100 µM

Cc1ccc(S(=O)(=O)N2CCCCN(S(=O)(=O)c3ccc(C)cc3)Cc3ccccc3OCCOCCOc3c4cccc3Cc3cccc5c3OCCOCCOc3ccccc3CN(S(=O)(=O)c3ccc(C)cc3)CCCN(S(=O)(=O)c3ccc(C)cc3)Cc3ccccc3OCCOCCOc3c(cccc3C4)Cc3cccc(c3OCCOCCOc3ccccc3C2)C5)cc1
inactive: NCI-H226 > 100 µM | SF-295 > 100 µM | CCRF-CEM > 100 µM | KM12 > 100 µM | Hs-578T > 100 µM | EKVX > 100 µM | RXF 393 > 100 µM | UO-31 > 100 µM | K562 > 100 µM | IGROV-1 > 100 µM | NCI-H522 78.9 µM | SNB-19 > 100 µM | DU-145 > 100 µM | NCI/ADR-RES > 100 µM | OVCAR-8 > 100 µM | MCF7 > 100 µM | MDA-MB-231 > 100 µM | U-251 > 100 µM

CSC1=N/C(=C\c2cccs2)C(=O)N1CN1CCCCC1
inactive: NCI-H226 57.8 µM | SF-295 > 100 µM | CCRF-CEM 18.7 µM | KM12 50.2 µM | Hs-578T 18.3 µM | EKVX 24 µM | SK-MEL-28 > 100 µM | SR 32.2 µM | UO-31 23.3 µM | K562 27.1 µM | IGROV-1 33.5 µM | DU-145 > 100 µM | NCI/ADR-RES 50.9 µM | OVCAR-8 51.3 µM | MCF7 45.2 µM | MDA-MB-231 > 100 µM | U-251 79.6 µM

CO/C(N)=C(C#N)/N=C/c1ccco1
inactive: NCI-H226 > 100 µM | SF-295 > 100 µM | CCRF-CEM 67.8 µM | KM12 > 100 µM | Hs-578T > 100 µM | EKVX > 100 µM | SK-MEL-28 > 100 µM | RXF 393 > 100 µM | UO-31 > 100 µM | K562 > 100 µM | IGROV-1 > 100 µM | NCI-H522 > 100 µM | DU-145 > 100 µM | NCI/ADR-RES > 100 µM | OVCAR-8 > 100 µM | MCF7 > 100 µM | MDA-MB-231 > 100 µM | U-251 > 100 µM

CC(=O)Nc1c(C)cc2c(nc3n2CCC3O)c1[N+](=O)[O-] (centres undefined)
inactive: NCI-H226 > 100 µM | SF-295 > 100 µM | CCRF-CEM > 100 µM | KM12 > 100 µM | Hs-578T > 100 µM | EKVX > 100 µM | SK-MEL-28 > 100 µM | UO-31 > 100 µM | K562 > 100 µM | IGROV-1 > 100 µM | NCI-H522 > 100 µM | SNB-19 > 100 µM | DU-145 > 100 µM | NCI/ADR-RES > 100 µM | OVCAR-8 > 100 µM | MCF7 > 100 µM | MDA-MB-231 > 100 µM | U-251 > 100 µM

Cn1c2ccccc2c(=O)c2cccc(C(=O)NC(CCCNC(=N)N)C(=O)O)c21 (centres undefined)
inactive: NCI-H226 > 100 µM | SF-295 > 100 µM | KM12 > 100 µM | Hs-578T > 100 µM | EKVX > 100 µM | SK-MEL-28 > 100 µM | UO-31 > 100 µM | K562 > 100 µM | IGROV-1 30.1 µM | SNB-19 > 100 µM | DU-145 > 100 µM | NCI/ADR-RES 26.1 µM | OVCAR-8 > 100 µM | MCF7 > 100 µM | MDA-MB-231 > 100 µM | U-251 > 100 µM

Clc1ccc(OCc2nnc3sc(-c4ccc(-c5ccc(Cl)cc5Cl)o4)nn23)cc1
inactive: NCI-H226 > 100 µM | SF-295 89.1 µM | CCRF-CEM > 100 µM | KM12 > 100 µM | Hs-578T > 100 µM | EKVX > 100 µM | SK-MEL-28 > 100 µM | SR > 100 µM | RXF 393 16.4 µM | UO-31 > 100 µM | K562 > 100 µM | IGROV-1 > 100 µM | NCI-H522 > 100 µM | SNB-19 > 100 µM | DU-145 > 100 µM | NCI/ADR-RES > 100 µM | OVCAR-8 > 100 µM | MDA-MB-231 > 100 µM | U-251 84.3 µM
